The data set in a line: Dissolution of hydrocortisone in DCM of the coating suspension. The class given is physicochemical. The following applies: suspension in PLGA/dichloromethane for SAS coating. An excerpt:
An exemplary processing protocol according to the present disclosure is as follows. The precipitation chamber is first charged with SC CO2. After the predetermined operating conditions (temperature and pressure) are reached, a steady flow of CO2 is established by adjusting the metering valve and the metering pump. The flow rate of CO2 was usually less than 3.0 standard liters per minute (SLPM). PLGA and hydrocortisone (HC) are then weighed and mixed into dichloromethane (DCM) to produce a suspension with the desired polymer concentration and PLGA to HC ratio. The suspension-so-produced is then injected at a flow rate of 0.8 ml/min into the high pressure chamber through the capillary nozzle by using an HPLC pump (Beckman, 110B) for about 10 minutes. After spraying, fresh CO2 is supplied continuously to purge the chamber with about 1 equivalent volume of CO2 in order to remove any remaining dichloromethane. After purging, the precipitation chamber is slowly depressurized and the coated drug particles collected for characterization.
Initially, reference is made to FIG. 18 wherein SEM images of the untreated hydrocortisone particles employed in the experimental studies are shown. Hydrocortisone is seen to be in crystal form with defined facets and sharp edges. […] The coated particles have a different shape (morphology) and no clear sharp edges when compared with the uncoated drug particles. […]

Structures are written as SMILES.

Regarding `C[C@]12CCC(=O)C=C1CC[C@@H]1[C@@H]2[C@@H](O)C[C@@]2(C)[C@H]1CC[C@]2(O)C(=O)CO` [hydrocortisone, Hydrocortisone], the “hydrocortisone dissolved in DCM, share of the total” value is given as “about 17%”.
